Reference: patent US11953435B2, “Zinc-responsive fluorophores” (Northwestern University, priority 2019, dated 2024)
“Also recorded” adds a separate entry of the source.

Experiments:
[1] = pH response of fluorescence; type: physicochemical; details: for pH-dependent fluorescence changes: holo and apo forms, physiological pH range (pH 4-8); for fluorescence changes of the Apo probe with pH: Apo (TPEN); for fluorescence changes of the Apo probe with pH / pH range in which fluorescence of the Zn-bound probe is stable: buffers at various pHs
Protocol: (§1) Aqueous solutions were prepared by using de-ionized water with resistivity […], obtained using a Milli-Q water purification system. In order to properly compare the photophysical properties of ZincBY-2, ZincBY-3, and ZincBY-4 to ZincBY-1, the photophysical properties of ZincBY-1 we remeasured. […] Stock solutions of ZincBY-1, ZincBY-2, ZincBY-3, and ZincBY-4 were prepared at concentrations of 5 mM and stored at −20° C. in aliquots that were used immediately after thawing for each experiment. Unless otherwise stated, all spectroscopic methods were conducted in aqueous buffer containing 50 mM HEPES (pH 7.2) and 0.1 M KNO3. UV-visible spectra were acquired on a PerkinElmer Lambda 650 UV/Vis spectrophotometer using quartz cuvettes from Starna (1 cm path length, 10 cm path length used in extinction coefficient and quantum yield determination). Fluorescence spectra were acquired using a PerkinElmer LS 55 fluorescence spectrophotometer. For measurements containing zinc, 99.0% ZnNO3 hexahydrate (final concentration 5 μM) was used. For experiments analyzing apo probes, N,N,N′,N′-Tetrakis(2-pyridylmethyl)ethylenediamine (TPEN) (final concentration 5 μM) was added to solution. Quantum Yield and Extinction Coefficient Determination. Quantum yields for apo and holo ZincBY-1, ZincBY-2, ZincBY-3, and ZincBY-4 were determined by plotting absorbance vs. fluorescence intensity of solutions containing ZincBY-1, ZincBY-2, ZincBY-3, or ZincBY-4 at probe concentrations ranging from 50-250 nM. Serial dilution was used to make solutions at different concentrations. Fluorescein dissolved in 0.1 N NaOH was used as the quantum yield standard, using a literature-determined quantum yield of 0.95.^3 For all fluorophore solutions, fluorescence excitation was set at 490 nm and fluorescence emission was integrated from 510 nm to 650 nm. Zinc Dissociation Constant. Fluorescence spectra were recorded using zinc probes (ZincBY-1, ZincBY-2, ZincBY-3, or ZincBY-4; 200 nM) and ZnSO4 (various concentrations). The solutions were equilibrated in the dark for 1 h prior to measurement. The concentration of ZnSO4 was varied from 1 μM to 9 mM in buffer solution (50 mM HEPES and 0.1 M KNO3, and pH 7.2) containing 10 mM EGTA. Free Zn^2+ was calculated according to a previously reported method (Ref. B4; incorporated by reference in its entirety). Data was fit to the following one-site binding equation: F=(FminKd+Fmax[Zn^2+])/(Kd+[Zn^2+]) pH Response. The fluorescence spectra of zinc probes (ZincBY-2, ZincBY-3, or ZincBY-4; 200 nM) wasere measured at various pH values (4.5-11). The following buffers were used at 50 mM concentration with 0.1 M KNO3: NaOAc/AcOH (pH 4.0-4.5), MES (pH 5.0-6.5), HEPES (pH 7.0-8.0), CHES (pH 8.5-9.5), CAPS (pH 10.0-11.0). Metal Ion Response. The fluorescence spectra of zinc probes (ZincBY-2, ZincBY-3, or ZincBY-4; 200 nM) were measured in the presence an excess of metal ion including 1 mM KNO3, 1 mM NaNO3, 1 mM CaSO4, 1 mM MgSO4, 15 μM MnSO4, 15 μM (NH4)2Fe(SO4)2, 15 μM NH4Fe(SO4)2, 15 μM CoSO4, 15 μM NiSO4, 15 μM CuSO4, 15 μM [Cu(CH3CN)4]PF6, 15 μM CdSO4, 15 μM Hg(NO3)2, 15 μM Pb(NO3)2, or 15 μM ZnSO4. The fluorescence spectra were compared to that of ZincBY-2 (200 nM), ZincBY-3 (200 nM), or ZincBY-4 (200 nM) in the presence of 10 μM TPEN. Determination of octanol-water partition coefficients (log P). A log P value for each probe was determined by agitating nanomolar solutions of each probe in a 1:1 mixture of HEPES buffer and 1-octanol. Solutions were allowed to settle for 1 h and then the fluorescence intensity of each phase was measured. Standard curves of the fluorescence of known concentrations of probes in both solutions were used to determine concentrations.

[2] = Metal ion response / selectivity of fluorescence; details: for metal ions that inhibit the zinc response: other metal ions in the presence of excess zinc; for fluorescence response to toxic metals (Cd, Hg, Pb): relative fluorescence intensity; for metal ions to which the probe does not respond: relative fluorescence intensity in the presence of other metal ions
Protocol: as §1

| Structure (SMILES) | pH-dependent fluorescence changes [1] | preference for Zn(II) over other biologically relevant metal ions [2] | fluorescence changes of the Apo probe with pH [1] | pH range in which fluorescence of the Zn-bound probe is stable [1] | metal ions that inhibit the zinc response [2] | fluorescence response to toxic metals (Cd, Hg, Pb) [2] | metal ions to which the probe does not respond [2] |
| --- | --- | --- | --- | --- | --- | --- | --- |
| COc1ccc2n1[B-](F)(F)[N+]1=C(N(CCN(Cc3ccccn3)Cc3ccccn3)Cc3ccccn3)C=CC1=C2c1c(C)cc(C)cc1C [ZincBY-1, reference compound] | neither the holo or apo forms of ZincBY-1 and ZincBY-4 show significant changes in fluorescence | responds preferentially to Zn(II) relative to other biologically relevant metal ions |  |  |  |  |  |
| Cc1cc(C)c(C2=C3C=CC(OCCN=[N+]=[N-])=[N+]3[B-](F)(F)n3c2ccc3N(CCN(Cc2ccccn2)Cc2ccccn2)Cc2ccccn2)c(C)c1 [ZincBY-2, N1-(7-(2-azidoethoxy)-5,5-difluoro-10-mesityl-5H-4λ4,5λ4-dipyrrolo[1,2-c:2′,1′-f][1,3,2]diazaborinin-3-yl)-N1,N2,N2-tris(pyridin-2-ylmethyl)ethane-1,2-diamine] |  |  | largely unaffected by changes in pH | 4.5-8.0 pH | does not fluoresce in the presence of Cu(I) and Cu(II), and these ions inhibit the zinc response | exhibits an increase in fluorescence in response to toxic metals Cd and Hg, but does not respond to Pb | does not respond to changes in K, Na, Ca, Mg, Mn, Fe, Co, or Ni concentration |
| Cc1cc(C)c(C2=C3C=CC(OCCN)=[N+]3[B-](F)(F)n3c2ccc3N(CCN(Cc2ccccn2)Cc2ccccn2)Cc2ccccn2)c(C)c1 [ZincBY-3, N1-(7-(2-aminoethoxy)-5,5-difluoro-10-mesityl-5H-4λ4,5λ4-dipyrrolo[1,2-c:2′,1′-f][1,3,2]diazaborinin-3-yl)-N1,N2,N2-tris(pyridin-2-ylmethyl)ethane-1,2-diamine] |  |  | largely unaffected by changes in pH | 4-8 pH | does not fluoresce in the presence of Cu(I) or Cu(II), and these ions inhibit the zinc response; also recorded: Fe(II) and Fe(III) also seem to inhibit a zinc response | exhibits a fluorescence response to the toxic metals Cd, Hg, and Pb | does not respond to changes in K, Na, Ca, Mg, Mn, Co, or Ni concentration |
| CC(=O)NCCOc1ccc2n1[B-](F)(F)[N+]1=C(N(CCN(Cc3ccccn3)Cc3ccccn3)Cc3ccccn3)C=CC1=C2c1c(C)cc(C)cc1C [ZincBY-4, N-(2-((7-((2-(bis(pyridin-2-ylmethyl)amino)ethyl)(pyridin-2-ylmethyl)amino)-5,5-difluoro-10-mesityl-5H-5λ4,6λ4-dipyrrolo[1,2-c:2′,1′-f][1,3,2]diazaborinin-3-yl)oxy)ethyl)acetamide] | neither the holo or apo forms of ZincBY-1 and ZincBY-4 show significant changes in fluorescence | responds preferentially to Zn(II) relative to other biologically relevant metal ions | largely unaffected by changes in pH | 4-8 pH | does not fluoresce in the presence of Cu(II) or Hg, and these ions inhibit the zinc response; also recorded: Fe(II), Fe(III), and Co also seem to inhibit the zinc response | exhibits a fluorescence response to the toxic metals Cd, and Pb | does not respond to changes in K, Na, Ca, Mg, Mn, Ni, or Cu(I) concentration |
